The values that follow come from publication PMC6893557, “Discovery of Non-peptide Small Molecule Allosteric Modulators of the Src-family Kinase, Hck” (Frontiers in Chemistry, 2019).

One test addresses T1, Hck U-SH32-L (Hck-U32L) (Homo sapiens, UniProt P08631).
T1 construct: including the N-terminal unique region, followed by the SH3 and SH2 domains, and the SH2-kinase linker; made in house; host or cells: E. coli
The test is described as follows: SPR binding, Hck unique-SH3-SH2-linker protein. Particulars: kinetic KD, 1:1 Langmuir model, ± S.E., NI = no interaction, read-out: KD, Hck proteins U-SH32-L.

The next test has as its target T2, Hck-YEEI (Homo sapiens, UniProt P08631, Q523E/Q524E/Q525I).
T2 construct: a near-full-length form of Hck consisting of the SH3, SH2 and kinase domains plus the tyrosine-phosphorylated tail; made in house; host or cells: Sf9 insect cells
The experiment in a line: SPR binding, near-full-length Hck. The note with it: kinetic KD, 1:1 Langmuir model, ± S.E., NI = no interaction, read-out: KD, Hck proteins Hck-YEEI.

A further test has as its target T3, Hck SH32-L (Homo sapiens, UniProt P08631).
T3 construct: an SH3-SH2-linker protein lacking the N-terminal unique domain; made in house; host or cells: E. coli
The test is described as follows: SPR binding, Hck SH3-SH2-linker protein. Particulars: for Kd: kinetic KD, 1:1 Langmuir model, ± S.E., NI = no interaction, read-out: KD, Hck proteins SH32-L.

In a further test the target is T4, Fgr-YEEI (Homo sapiens, UniProt P09769, G526I/P525E/Q524E).
T4 construct: near-full-length Fgr, lacking only the unique domain and encoding the same modified C-terminal tail as near-full-length Hck (Fgr-YEEI); made in house; host or cells: Sf9 insect cells
The test is described as follows: SPR binding, near-full-length Fgr. Particulars: kinetic KD, 1:1 Langmuir model, ± S.E., NI = no interaction; for Kd: read-out: KD, Fgr proteins Fgr-YEEI.

Another test addresses T5, Fgr U-SH32-L (Homo sapiens, UniProt P09769).
T5 construct: the complete regulatory region, consisting of the unique, SH3, and SH2 domains plus the SH2-kinase linker (U32L protein); made in house; host or cells: E. coli
The test is described as follows: SPR binding, Fgr unique-SH3-SH2-linker protein. The note with it: kinetic KD, 1:1 Langmuir model, ± S.E., NI = no interaction; for Kd: read-out: KD, Fgr proteins U-SH32-L.

Another test concerns the target T6, Hck U32L protein (Homo sapiens, UniProt P08631).
T6 construct: including the N-terminal unique region, followed by the SH3 and SH2 domains, and the SH2-kinase linker; made in house; host or cells: E. coli
The experiment in a line: Fluorescence polarization (FP) assay: displacement of VSL12 probe peptide from Hck-U32L. The test is classed as binding. Particulars: IC50, inhibition of VSL12 peptide FP signal, Hck-U32L plus fluorescent VSL12 probe; two independent determinations ± S.E., each data point in triplicate. Here is the method: For the FP assay, the peptide was labeled with 6-carboxyfluorescein at its N-terminus. […] Molecular weight and purity of all peptides were verified by mass spectrometry. Stock solutions (10 mM) were prepared in a 1:1 mixture of DMSO and FP assay buffer (20 mM Tris-HCl, pH 8.3) for the labeled peptide and FP assay buffer for the unlabeled peptide. Stock solutions were stored at −20°C.
FP assays were performed in low-volume black 384-well plates with a non-binding surface (Corning #3676). Peptides and proteins were added to each well in FP assay buffer for a final assay volume of 20 μL and mixed by shaking for 5 min at room temperature. […] Raw fluorescence intensity was also read at the same wavelengths for each assay.
Screening libraries were purchased from ChemDiv (10,000 non-peptide peptidomimetic library) and ChemBridge (50,000 compound diversity library). Each library compound was screened at 50 μM and a final DMSO concentration of 1%. […] Each plate contained 32 wells of the Hck U32L protein plus probe peptide and DMSO as positive controls, and 32 wells of mutant Hck U32L-W118A protein plus probe peptide and DMSO as negative controls. Results for each compound test well were ranked by z score analysis according to the formula: z = (sample FP—mean FPsamples)/standard deviationsamples (Shun et al., [2011]). Potential hit compounds, defined as those that inhibited the FP signal by at least 30% and/or with z scores < −3.0, were then retested in quadruplicate using the FP assay under screening assay conditions.
The target protein for HTS consisted of the entire regulatory region of the p59 form of human Hck, including the N-terminal unique region, followed by the SH3 and SH2 domains, and the SH2-kinase linker (referred to hereafter as the Hck “U32L” protein). […] The principle of the assay is illustrated in Figure 2A. Binding of the probe peptide to the SH3 domain in the target protein slows its rotation, resulting in an increase in the FP signal. Library compounds that interfere with probe binding or stabilize SH3-linker interaction reduce the FP signal, and score as hits.

A further test addresses T7, Fgr SH32 (Homo sapiens, UniProt P09769).
T7 construct: including a dual SH3-SH2 domain protein; made in house; host or cells: E. coli
The experiment in a line: SPR binding, Fgr dual SH3-SH2 domain protein. The note with it: kinetic KD, 1:1 Langmuir model, ± S.E., NI = no interaction; for Kd: read-out: KD, Fgr proteins SH32.

“And” between values parts separate entries of the source, which are not always exact repeats. Identical values can stand only once.

T7 sequence (P09769 77-241 limits assumed): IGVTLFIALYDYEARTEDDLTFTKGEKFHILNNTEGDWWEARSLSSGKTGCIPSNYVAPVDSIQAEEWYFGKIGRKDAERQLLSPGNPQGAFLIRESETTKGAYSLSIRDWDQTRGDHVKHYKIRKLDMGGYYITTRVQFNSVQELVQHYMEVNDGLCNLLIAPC
T1 sequence (P08631 22-256): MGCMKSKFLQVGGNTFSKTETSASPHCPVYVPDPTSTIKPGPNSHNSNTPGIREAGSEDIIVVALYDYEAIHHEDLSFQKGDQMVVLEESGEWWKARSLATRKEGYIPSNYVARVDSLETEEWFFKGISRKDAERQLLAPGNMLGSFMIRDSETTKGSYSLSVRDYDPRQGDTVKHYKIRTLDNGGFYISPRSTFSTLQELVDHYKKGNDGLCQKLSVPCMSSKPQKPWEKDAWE
T6 sequence (P08631 22-256): as above
T5 sequence (P09769 1-257 limits assumed): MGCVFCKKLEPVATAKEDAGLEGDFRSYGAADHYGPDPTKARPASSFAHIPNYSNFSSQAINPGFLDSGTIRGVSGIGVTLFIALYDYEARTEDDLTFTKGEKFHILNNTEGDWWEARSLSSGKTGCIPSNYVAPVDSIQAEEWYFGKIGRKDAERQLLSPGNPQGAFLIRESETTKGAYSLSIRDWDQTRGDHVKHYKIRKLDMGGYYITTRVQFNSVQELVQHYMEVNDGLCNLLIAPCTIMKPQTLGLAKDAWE
T4 sequence (P09769 77-526 Q524E/P525E/G526I): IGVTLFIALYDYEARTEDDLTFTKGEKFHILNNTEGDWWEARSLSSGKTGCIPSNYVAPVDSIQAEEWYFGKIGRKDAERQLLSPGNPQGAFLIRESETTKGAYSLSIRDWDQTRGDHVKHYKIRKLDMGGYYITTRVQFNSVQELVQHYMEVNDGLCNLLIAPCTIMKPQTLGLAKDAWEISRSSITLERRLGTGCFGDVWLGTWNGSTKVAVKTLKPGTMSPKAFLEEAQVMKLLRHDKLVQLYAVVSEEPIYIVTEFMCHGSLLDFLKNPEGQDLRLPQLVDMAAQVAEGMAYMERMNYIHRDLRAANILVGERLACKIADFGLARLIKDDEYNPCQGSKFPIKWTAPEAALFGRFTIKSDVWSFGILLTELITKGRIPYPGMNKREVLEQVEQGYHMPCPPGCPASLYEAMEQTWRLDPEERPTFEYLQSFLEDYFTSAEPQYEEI
T3 sequence (P08631 72-256 limits assumed): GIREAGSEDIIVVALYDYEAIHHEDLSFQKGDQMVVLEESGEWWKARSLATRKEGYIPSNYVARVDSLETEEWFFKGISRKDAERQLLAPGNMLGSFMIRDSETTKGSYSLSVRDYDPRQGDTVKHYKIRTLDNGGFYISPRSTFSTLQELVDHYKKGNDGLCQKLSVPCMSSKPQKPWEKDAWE
T2 sequence (P08631 78-526 Q523E/Q524E/Q525I limits assumed): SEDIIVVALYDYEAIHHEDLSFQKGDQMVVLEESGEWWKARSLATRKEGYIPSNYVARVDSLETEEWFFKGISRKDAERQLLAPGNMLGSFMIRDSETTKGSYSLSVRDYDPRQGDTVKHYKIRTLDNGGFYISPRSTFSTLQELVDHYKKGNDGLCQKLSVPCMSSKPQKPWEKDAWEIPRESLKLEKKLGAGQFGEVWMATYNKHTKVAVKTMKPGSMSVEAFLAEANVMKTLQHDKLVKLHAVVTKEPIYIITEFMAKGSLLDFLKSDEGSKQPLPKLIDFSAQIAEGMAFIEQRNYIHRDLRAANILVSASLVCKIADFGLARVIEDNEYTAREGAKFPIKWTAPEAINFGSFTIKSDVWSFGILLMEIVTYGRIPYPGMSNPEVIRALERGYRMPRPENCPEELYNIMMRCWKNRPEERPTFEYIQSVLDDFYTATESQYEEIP
Method for Fgr SH32: (§1) SPR analysis was performed on a Reichert 4SPR instrument (Reichert Technologies) using four-channel carboxymethyl dextran hydrogel biosensor chips (Reichert #13206066). Recombinant purified Hck proteins were covalently attached to the chip surface via standard amine coupling chemistry (Grover et al., [2015]). Compounds were prepared in 20 mM Tris-HCl, pH 8.3, 150 mM NaCl, and 1% DMSO and flowed past the immobilized proteins and a reference channel at a flow rate of 50 μL/min for 60 s over a range of concentrations. The binding reaction was followed by dissociation for 120 s, followed by surface regeneration using 10 mM HEPES, pH 7.5, containing 150 mM NaCl, 3 mM EDTA, and 0.05% polysorbate 20, at a flow rate of 50 μL/min for 30 s. All sensorgrams were recorded in triplicate, corrected for buffer effects, and fitted with the 1:1 Langmuir binding model using the TraceDrawer software (Reichert).
Method for Fgr U-SH32-L: as §1
Method for Fgr-YEEI: as §1
Method for Hck SH32-L: as §1
(§2) Interaction was monitored to equilibrium, followed by a dissociation phase. The resulting sensorgrams were best-fit to determine the kinetic rate constants and corresponding KD values, where KD = koff/kon. As positive controls, we also monitored the interaction of peptide ligands for the SH3 and SH2 domains.
Method for Hck U-SH32-L (Hck-U32L): as §1, §2
Method for Hck-YEEI: as §1, §2

As to `CC(C)Nc1ccnc(NCc2cccnc2Oc2ccc(F)cc2F)n1` [Compound 1], the Kd at Hck U-SH32-L (Hck-U32L) is 36 ± 4 µM; at Hck-YEEI, 103 ± 4 µM; at Hck SH32-L it was 83 ± 19 µM; at Fgr-YEEI, 141 ± 4 µM; on Fgr U-SH32-L it was 131 ± 6 µM; at Fgr SH32, 104 ± 3 µM. Also, the IC50 at Hck U32L protein is 52.9 µM and 53.2 µM.
Take `Cc1cnc(NCc2ccccc2-n2ccnc2)nc1N(C)C` [Compound 2]: the Kd at Hck U-SH32-L (Hck-U32L) was found to be 30 µM; on Hck-YEEI, 93 ± 1 µM; at Hck SH32-L it was 96 ± 2 µM; at Fgr-YEEI it was 107 ± 1 µM; on Fgr U-SH32-L, 70 ± 5 µM; at Fgr SH32, 352 ± 1 µM. Besides, on Hck SH32-L, the “Fold increase of KD with SH3-SH2-linker protein lacking the unique domain vs Hck-U32L” value is recorded as “about 3 fold”. In addition, the “Reduction of extent of binding with SH3-SH2-linker protein lacking the unique domain vs Hck-U32L” value on Hck SH32-L is reported as “about 50%”. The IC50 on Hck U32L protein is 11.3 µM and 16.7 µM.
In the case of `CNc1ccnc(NCCC23CCCN2CCC3)n1` [Compound 3], the dissociation constant Kd at Hck U-SH32-L (Hck-U32L) was found to be 55 ± 5 µM; at Hck-YEEI, 142 ± 1 µM; on Hck SH32-L, 905 ± 18 µM. The “KD, Fgr proteins Fgr-YEEI” value on Fgr-YEEI is reported as “did not bind”. Moreover, the “KD, Fgr proteins U-SH32-L” value at Fgr U-SH32-L is listed as “did not bind”. Also, the IC50 at Hck U32L protein is 36.3 µM and 31 µM. In addition, the “KD, Fgr proteins SH32” value on Fgr SH32 is reported as “did not bind”.
As for `Cc1cnc(NCc2ccccc2CN2CCCC2=O)nc1N(C)C` [Compound 4], the Kd at Hck U-SH32-L (Hck-U32L) was 831 µM; at Hck-YEEI it was 180 ± 1 µM; on Hck SH32-L, 338 ± 4 µM; at Fgr-YEEI, 64 ± 2 µM; on Fgr U-SH32-L it was 102 ± 4 µM; at Fgr SH32, 69 ± 1 µM. At Hck U32L protein, the IC50 was 36.1 µM and 59.6 µM.
